# Literature values in patent US20250228877A1, “MANAGEMENT OF SKIN AILMENTS” (priority 2021, published 2025).
# Experiments:
# [1] = 7 days following treatment
# [2] = 1-4% IP-6 in drinking water; measured by gadolinium uptake
# [3] = test system: human umbilical vein endothelial cell (HUVEC) tube formation; settings: after 24 hours; reconstituted extracellular matrix
structure (smiles),measurement,setting,value
"O=P(O)(O)O[C@H]1[C@H](OP(=O)(O)O)[C@@H](OP(=O)(O)O)[C@H](OP(=O)(O)O)[C@@H](OP(=O)(O)O)[C@H]1OP(=O)(O)O [IP-6, myo-inositol hexakisphosphate]",vascularity (number of blood vessel formation),[1],inhibited vascularity
same,angiogenesis evaluated by micro-vessel density (MVD),[2],inhibited angiogenesis
same,number of capillaries,[3],reduction
